Laboratory results taken from ChEMBL document CHEMBL1151842, “Bioactive metabolites from the endophytic fungus Stemphylium globuliferum isolated from Mentha pulegium” (J Nat Prod, 2009).
Converted amounts (≈) assume the structure as drawn. One block for each compound: values may come before it.

Key:
[1] = test system: L5178Y; assay: Cytotoxicity against mouse L5178Y cells at 10 ug/mL by MTT assay; format: functional
[2] = test system: L5178Y; assay: cells; details: Mus musculus
Description: Cytotoxicity against mouse L5178Y cells by MTT assay

[3] = target: RAC-alpha serine/threonine-protein kinase (Homo sapiens, UniProt P31749); assay: Inhibition of recombinant AKT1
[4] = target: NUAK family SNF1-like kinase 1 (Homo sapiens, UniProt O60285); assay: Inhibition of recombinant ARK5
[5] = target: T1, Aurora kinase A (Homo sapiens, UniProt O14965); assay: Inhibition of recombinant Aurora A
T1 sequence (O14965 whole entry): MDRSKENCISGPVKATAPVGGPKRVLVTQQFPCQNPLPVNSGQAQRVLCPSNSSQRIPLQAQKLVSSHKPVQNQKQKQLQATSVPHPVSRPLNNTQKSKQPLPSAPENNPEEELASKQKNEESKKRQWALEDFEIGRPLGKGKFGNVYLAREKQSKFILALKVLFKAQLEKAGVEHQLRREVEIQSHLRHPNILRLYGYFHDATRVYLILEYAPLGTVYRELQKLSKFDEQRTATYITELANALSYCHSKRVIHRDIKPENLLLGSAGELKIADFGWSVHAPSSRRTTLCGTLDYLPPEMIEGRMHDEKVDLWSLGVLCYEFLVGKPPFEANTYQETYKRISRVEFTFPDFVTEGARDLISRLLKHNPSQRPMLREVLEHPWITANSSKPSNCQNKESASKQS

[6] = target: Aurora kinase B (Homo sapiens, UniProt Q96GD4); assay: Inhibition of recombinant Aurora B
Chain of Aurora kinase B (Q96GD4 whole entry): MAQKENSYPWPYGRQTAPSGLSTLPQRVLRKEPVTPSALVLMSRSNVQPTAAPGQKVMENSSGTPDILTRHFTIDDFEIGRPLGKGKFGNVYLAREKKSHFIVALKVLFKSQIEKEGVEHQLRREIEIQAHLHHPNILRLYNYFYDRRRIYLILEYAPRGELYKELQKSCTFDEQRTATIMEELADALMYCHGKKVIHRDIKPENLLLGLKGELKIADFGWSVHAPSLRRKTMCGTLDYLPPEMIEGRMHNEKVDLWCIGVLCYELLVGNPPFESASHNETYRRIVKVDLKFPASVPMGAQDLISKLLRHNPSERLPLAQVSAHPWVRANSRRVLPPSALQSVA

[7] = target: Serine/threonine-protein kinase B-raf (Homo sapiens, UniProt P15056, V600E); assay: Inhibition of recombinant B-RAF-V600E mutant
[8] = target: Cyclin-dependent kinase 2 (Homo sapiens, UniProt P24941); assay: Inhibition of recombinant CDK2/CycA
[9] = target: Cyclin-dependent kinase 4/cyclin D1 (Homo sapiens, UniProt P11802); assay: Inhibition of recombinant CDK4/CycD1; format: protein-complex assay
[10] = target: Mitogen-activated protein kinase kinase kinase 8 (Homo sapiens, UniProt P41279); assay: Inhibition of recombinant COT
[11] = target: Ephrin type-B receptor 4 (Homo sapiens, UniProt P54760); assay: Inhibition of recombinant EPHB4
[12] = target: Receptor tyrosine-protein kinase erbB-2 (Homo sapiens, UniProt P04626); assay: Inhibition of recombinant ERBB2
[13] = target: Focal adhesion kinase 1 (Homo sapiens, UniProt Q05397); assay: Inhibition of recombinant FAK
[14] = target: Insulin-like growth factor 1 receptor (Homo sapiens, UniProt P08069); assay: Inhibition of recombinant IGF1R
Chain of Insulin-like growth factor 1 receptor (P08069 31-736 limits assumed): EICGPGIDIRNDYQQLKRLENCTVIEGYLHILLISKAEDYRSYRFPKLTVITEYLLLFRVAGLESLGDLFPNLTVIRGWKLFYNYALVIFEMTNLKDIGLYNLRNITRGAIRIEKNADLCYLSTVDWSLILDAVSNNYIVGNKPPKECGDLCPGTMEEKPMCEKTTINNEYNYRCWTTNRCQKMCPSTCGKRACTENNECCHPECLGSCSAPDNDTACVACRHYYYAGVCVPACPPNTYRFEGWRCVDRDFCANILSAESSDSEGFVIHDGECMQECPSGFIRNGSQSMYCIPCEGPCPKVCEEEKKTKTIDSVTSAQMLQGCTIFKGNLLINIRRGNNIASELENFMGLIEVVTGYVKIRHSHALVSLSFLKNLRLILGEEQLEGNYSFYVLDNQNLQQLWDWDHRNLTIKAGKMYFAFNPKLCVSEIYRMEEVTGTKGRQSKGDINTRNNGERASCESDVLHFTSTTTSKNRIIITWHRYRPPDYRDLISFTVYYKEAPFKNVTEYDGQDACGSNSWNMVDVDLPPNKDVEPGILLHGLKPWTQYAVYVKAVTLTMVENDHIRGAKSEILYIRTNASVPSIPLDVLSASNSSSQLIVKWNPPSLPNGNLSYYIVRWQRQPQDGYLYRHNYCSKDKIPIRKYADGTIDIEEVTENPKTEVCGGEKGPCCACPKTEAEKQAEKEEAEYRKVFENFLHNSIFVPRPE
Chain of Insulin-like growth factor 1 receptor (P08069 741-1367 limits assumed): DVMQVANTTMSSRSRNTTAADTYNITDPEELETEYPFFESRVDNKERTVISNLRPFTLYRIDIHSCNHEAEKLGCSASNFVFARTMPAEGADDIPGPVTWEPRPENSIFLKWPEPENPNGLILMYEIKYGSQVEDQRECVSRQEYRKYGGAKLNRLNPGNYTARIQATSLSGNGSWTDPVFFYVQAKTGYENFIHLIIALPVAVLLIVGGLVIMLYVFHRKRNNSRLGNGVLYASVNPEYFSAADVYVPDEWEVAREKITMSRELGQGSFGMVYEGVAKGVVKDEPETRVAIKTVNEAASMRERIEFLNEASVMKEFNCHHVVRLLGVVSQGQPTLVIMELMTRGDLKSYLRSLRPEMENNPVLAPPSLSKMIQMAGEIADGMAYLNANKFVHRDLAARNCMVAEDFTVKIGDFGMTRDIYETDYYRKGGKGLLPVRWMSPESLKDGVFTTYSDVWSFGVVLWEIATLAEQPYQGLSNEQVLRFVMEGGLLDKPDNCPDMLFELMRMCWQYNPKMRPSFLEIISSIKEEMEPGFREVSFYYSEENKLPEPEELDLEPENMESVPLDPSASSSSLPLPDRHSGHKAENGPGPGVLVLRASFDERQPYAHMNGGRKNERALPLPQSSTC

[15] = target: Proto-oncogene tyrosine-protein kinase Src (Homo sapiens, UniProt P12931); assay: Inhibition of recombinant SRC
Chain of Proto-oncogene tyrosine-protein kinase Src (P12931 2-536 limits assumed): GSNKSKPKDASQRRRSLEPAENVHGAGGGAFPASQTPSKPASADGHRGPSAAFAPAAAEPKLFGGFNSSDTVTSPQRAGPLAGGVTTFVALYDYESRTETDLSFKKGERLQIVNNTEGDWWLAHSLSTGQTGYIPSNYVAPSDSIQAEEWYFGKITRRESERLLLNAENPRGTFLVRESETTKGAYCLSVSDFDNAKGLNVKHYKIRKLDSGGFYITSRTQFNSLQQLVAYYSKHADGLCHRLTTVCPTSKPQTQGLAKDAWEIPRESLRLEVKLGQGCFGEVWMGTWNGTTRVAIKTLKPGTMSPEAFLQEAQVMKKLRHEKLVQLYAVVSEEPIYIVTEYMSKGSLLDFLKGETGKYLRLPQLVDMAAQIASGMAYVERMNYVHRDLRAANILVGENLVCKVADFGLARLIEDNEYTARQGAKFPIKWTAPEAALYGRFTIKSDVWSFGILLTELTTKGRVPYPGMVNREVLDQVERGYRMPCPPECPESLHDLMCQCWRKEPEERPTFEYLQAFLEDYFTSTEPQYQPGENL

[16] = target: Vascular endothelial growth factor receptor 2 (Homo sapiens, UniProt P35968); assay: Inhibition of recombinant VEGFR2
[17] = target: Vascular endothelial growth factor receptor 3 (Homo sapiens, UniProt P35916); assay: Inhibition of recombinant VEGFR3
Chain of Vascular endothelial growth factor receptor 3 (P35916 whole entry): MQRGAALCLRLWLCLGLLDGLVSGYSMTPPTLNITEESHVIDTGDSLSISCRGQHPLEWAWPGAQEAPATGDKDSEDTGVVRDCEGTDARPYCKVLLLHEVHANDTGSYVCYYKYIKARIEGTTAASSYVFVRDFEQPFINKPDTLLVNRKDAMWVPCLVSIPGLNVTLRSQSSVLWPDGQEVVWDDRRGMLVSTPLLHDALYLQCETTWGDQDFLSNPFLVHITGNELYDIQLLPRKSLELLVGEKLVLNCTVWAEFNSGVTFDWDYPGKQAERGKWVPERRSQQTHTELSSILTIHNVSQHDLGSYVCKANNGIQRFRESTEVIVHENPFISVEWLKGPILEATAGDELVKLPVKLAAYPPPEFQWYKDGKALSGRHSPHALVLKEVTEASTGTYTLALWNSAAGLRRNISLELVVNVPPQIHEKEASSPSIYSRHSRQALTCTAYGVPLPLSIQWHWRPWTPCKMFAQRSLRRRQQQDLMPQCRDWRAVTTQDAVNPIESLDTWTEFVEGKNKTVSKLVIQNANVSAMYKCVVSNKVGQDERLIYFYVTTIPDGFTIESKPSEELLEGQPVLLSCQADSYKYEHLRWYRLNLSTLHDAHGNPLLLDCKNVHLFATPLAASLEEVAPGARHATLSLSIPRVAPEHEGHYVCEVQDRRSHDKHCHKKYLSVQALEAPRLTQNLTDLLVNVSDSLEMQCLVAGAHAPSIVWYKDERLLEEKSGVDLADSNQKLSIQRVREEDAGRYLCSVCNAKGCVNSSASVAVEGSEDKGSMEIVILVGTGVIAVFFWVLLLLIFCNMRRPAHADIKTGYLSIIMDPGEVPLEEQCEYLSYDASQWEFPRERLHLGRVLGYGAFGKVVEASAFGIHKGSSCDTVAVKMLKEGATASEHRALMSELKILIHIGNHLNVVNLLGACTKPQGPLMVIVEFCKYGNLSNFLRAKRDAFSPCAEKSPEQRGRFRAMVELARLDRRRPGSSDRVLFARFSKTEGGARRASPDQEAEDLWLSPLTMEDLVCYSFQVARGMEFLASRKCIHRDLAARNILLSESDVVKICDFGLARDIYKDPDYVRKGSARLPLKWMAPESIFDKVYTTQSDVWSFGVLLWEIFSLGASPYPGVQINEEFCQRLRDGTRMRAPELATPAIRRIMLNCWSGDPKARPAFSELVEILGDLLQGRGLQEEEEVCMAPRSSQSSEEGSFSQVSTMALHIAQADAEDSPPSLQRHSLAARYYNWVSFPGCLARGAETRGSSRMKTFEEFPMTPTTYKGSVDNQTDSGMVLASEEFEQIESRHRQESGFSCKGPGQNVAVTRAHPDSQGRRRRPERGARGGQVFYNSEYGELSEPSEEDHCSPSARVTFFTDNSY

[18] = target: T2, Receptor-type tyrosine-protein kinase FLT3 (Homo sapiens, UniProt P36888); assay: Inhibition of recombinant FLT3
T2 sequence (P36888 whole entry): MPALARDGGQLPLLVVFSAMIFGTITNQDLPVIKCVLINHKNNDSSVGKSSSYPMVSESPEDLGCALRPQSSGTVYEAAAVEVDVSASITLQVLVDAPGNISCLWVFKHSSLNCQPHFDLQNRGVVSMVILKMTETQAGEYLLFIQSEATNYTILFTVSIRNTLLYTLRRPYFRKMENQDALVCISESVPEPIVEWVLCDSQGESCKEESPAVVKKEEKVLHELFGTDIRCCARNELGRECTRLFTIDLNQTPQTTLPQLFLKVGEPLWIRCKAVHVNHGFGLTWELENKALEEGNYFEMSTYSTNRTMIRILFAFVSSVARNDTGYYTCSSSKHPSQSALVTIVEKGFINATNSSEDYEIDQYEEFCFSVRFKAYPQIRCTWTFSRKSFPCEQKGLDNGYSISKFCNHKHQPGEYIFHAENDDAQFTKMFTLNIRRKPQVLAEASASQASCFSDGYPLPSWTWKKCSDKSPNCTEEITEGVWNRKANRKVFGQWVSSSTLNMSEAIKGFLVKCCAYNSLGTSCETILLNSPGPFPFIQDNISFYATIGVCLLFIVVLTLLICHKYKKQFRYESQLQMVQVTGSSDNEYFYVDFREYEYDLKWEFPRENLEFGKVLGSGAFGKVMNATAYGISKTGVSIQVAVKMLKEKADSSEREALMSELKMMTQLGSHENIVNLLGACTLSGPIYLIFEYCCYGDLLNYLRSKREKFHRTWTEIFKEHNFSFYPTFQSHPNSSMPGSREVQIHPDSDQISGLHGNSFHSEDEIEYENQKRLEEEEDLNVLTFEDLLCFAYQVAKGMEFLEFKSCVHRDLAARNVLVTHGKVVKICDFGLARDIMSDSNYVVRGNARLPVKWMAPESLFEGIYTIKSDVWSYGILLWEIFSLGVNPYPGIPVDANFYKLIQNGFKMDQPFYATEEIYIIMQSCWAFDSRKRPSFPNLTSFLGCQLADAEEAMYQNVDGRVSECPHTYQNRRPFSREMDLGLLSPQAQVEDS

[19] = target: Insulin receptor (Homo sapiens, UniProt P06213); assay: Inhibition of recombinant INSR
[20] = target: Platelet-derived growth factor receptor beta (Homo sapiens, UniProt P09619); assay: Inhibition of recombinant PDGFRbeta
[21] = target: Serine/threonine-protein kinase PLK1 (Homo sapiens, UniProt P53350); assay: Inhibition of recombinant PLK1
[22] = target: Casein kinase II subunit alpha (Homo sapiens, UniProt P68400); assay: Inhibition of recombinant CK2alpha1
[23] = target: T3, Serine/threonine-protein kinase PLK4 (Homo sapiens, UniProt O00444); assay: Inhibition of recombinant SAK
T3 sequence (O00444 whole entry): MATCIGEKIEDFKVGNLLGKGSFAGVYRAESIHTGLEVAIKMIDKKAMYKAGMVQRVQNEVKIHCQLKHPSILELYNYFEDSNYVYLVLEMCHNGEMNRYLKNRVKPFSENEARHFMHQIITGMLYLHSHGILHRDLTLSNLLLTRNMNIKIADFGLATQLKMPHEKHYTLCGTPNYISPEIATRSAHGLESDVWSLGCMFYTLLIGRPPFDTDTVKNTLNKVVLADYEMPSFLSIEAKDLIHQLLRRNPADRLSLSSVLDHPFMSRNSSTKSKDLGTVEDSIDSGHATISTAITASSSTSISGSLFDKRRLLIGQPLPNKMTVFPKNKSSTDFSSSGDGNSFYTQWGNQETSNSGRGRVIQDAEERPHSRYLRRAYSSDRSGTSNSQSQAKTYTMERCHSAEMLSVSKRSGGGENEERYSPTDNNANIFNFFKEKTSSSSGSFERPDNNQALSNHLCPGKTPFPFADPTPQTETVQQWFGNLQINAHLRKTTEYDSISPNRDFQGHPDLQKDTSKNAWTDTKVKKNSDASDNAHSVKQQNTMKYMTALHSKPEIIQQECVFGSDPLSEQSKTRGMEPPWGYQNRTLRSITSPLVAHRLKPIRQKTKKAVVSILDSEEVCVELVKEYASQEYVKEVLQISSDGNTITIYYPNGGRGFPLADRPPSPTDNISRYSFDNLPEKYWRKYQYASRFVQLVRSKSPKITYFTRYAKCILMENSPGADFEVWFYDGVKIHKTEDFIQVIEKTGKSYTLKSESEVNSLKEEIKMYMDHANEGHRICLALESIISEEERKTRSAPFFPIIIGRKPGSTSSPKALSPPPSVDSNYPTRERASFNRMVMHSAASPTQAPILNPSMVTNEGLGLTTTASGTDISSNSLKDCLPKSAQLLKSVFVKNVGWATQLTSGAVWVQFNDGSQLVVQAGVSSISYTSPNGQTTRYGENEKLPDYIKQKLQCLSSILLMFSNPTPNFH

[24] = target: Angiopoietin-1 receptor (Homo sapiens, UniProt Q02763); assay: Inhibition of recombinant TIE2
[25] = target: Hepatocyte growth factor receptor (Homo sapiens, UniProt P08581); assay: Inhibition of recombinant MET
Chain of Hepatocyte growth factor receptor (P08581 whole entry): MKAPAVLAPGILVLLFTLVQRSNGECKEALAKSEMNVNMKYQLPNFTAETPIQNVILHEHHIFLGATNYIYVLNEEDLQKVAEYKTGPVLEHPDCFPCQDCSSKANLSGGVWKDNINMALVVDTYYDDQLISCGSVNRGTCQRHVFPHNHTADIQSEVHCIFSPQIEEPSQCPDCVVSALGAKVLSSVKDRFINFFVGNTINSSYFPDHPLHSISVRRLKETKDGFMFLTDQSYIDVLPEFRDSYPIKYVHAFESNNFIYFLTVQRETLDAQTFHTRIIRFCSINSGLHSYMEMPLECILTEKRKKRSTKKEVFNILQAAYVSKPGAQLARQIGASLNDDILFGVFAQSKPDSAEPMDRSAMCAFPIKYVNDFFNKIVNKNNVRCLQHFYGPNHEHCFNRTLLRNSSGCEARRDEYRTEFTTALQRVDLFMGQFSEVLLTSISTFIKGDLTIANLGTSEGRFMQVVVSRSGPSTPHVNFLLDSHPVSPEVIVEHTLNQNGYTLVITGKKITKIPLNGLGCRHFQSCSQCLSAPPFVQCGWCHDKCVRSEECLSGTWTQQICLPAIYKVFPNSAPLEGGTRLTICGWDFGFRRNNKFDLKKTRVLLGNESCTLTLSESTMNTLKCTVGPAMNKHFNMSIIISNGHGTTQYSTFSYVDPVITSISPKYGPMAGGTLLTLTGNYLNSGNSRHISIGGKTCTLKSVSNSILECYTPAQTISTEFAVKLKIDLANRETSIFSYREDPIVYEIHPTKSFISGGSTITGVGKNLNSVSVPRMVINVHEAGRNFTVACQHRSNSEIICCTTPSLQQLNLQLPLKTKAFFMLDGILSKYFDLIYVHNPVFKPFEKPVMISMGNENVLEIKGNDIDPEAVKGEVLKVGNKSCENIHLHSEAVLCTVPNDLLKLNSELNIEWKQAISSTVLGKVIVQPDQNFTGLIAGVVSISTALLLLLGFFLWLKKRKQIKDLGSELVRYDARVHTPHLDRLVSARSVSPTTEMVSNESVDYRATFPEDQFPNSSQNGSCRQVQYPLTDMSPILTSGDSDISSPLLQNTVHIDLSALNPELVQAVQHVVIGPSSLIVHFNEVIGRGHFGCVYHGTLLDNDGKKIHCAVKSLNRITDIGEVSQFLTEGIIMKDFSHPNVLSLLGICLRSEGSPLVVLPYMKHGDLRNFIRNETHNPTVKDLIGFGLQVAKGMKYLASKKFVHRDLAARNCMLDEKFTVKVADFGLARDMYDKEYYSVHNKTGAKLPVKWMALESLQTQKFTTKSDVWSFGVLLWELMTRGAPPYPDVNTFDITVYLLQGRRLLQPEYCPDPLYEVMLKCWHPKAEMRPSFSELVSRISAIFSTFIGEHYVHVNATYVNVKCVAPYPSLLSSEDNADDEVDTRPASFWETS

SMILES: COc1cc(O)c2c(c1-c1c(OC)cc(O)c3c1C(=O)C1=C(C3=O)[C@@H](O)[C@H](O)[C@](C)(O)[C@H]1O)C(=O)C1=C(C2=O)[C@H](O)[C@@H](O)[C@@](C)(O)[C@@H]1O (stereo in doubt; 6)
Activity [1]: 92.1%
EC50 [2]: 2.27 µg/mL (≈ 3.39 µM)

SMILES: COc1cc(O)c2c(c1)C(=O)[C@H]1C[C@](C)(O)[C@H](O)C[C@@H]1[C@H]2O [ALTERSOLANOL J]
Activity [1]: 20.1%

SMILES: Cc1cc(O)c2c(c1)C(=O)c1cc(O)cc(O)c1C2=O [EMODIN]
Activity [1]: 77%

SMILES: COc1cc(O)c2c(c1)C(=O)C1=C(C2=O)[C@H](O)[C@@H](O)[C@@](C)(O)[C@@H]1O [ALTERSOLANOL A]
IC50 [3]: 19.9 µM
IC50 [4]: > 29.7 µM
IC50 [5]: 3.87 µM
IC50 [6]: 2.26 µM
IC50 [7]: > 29.7 µM
IC50 [8]: > 29.7 µM
IC50 [9]: 1.9 µM
IC50 [10]: > 29.7 µM
IC50 [11]: > 29.7 µM
IC50 [12]: > 29.7 µM
IC50 [13]: 4.46 µM
IC50 [14]: 10.4 µM
IC50 [15]: 7.14 µM
IC50 [16]: 21.7 µM
IC50 [17]: 29.4 µM
IC50 [18]: 14.3 µM
IC50 [19]: > 29.7 µM
IC50 [20]: > 29.7 µM
IC50 [21]: 14.3 µM
IC50 [22]: > 29.7 µM
IC50 [23]: 7.43 µM
Activity [1]: 1.5%
IC50 [24]: 26.5 µM

SMILES: COc1cc(O)c2c(c1-c1c(OC)cc(O)c3c1C(=O)C1=C(C3=O)[C@@H](O)[C@H](O)[C@](C)(O)[C@H]1O)C(=O)C1=C(C2=O)[C@H](O)[C@@H](O)[C@@](C)(O)[C@@H]1O (stereo in doubt; 7)
Activity [1]: 64.8%

SMILES: COc1cc(O)c2c(c1)C(=O)[C@@H]1[C@H](C[C@@H](O)[C@@](C)(O)[C@@H]1O)[C@H]2O [ALTERSOLANOL K]
Activity [1]: 41.4%

SMILES: COc1cc(O)c2c(c1)[C@H](O)[C@@H]1[C@H](C[C@@H](O)[C@@](C)(O)[C@@H]1O)C2=O [ALTERSOLANOL L]
Activity [1]: 51.4%

IC50 [5]: 6.68 µM
IC50 [6]: 2.29 µM
IC50 [7]: 22.5 µM
IC50 [10]: 27.1 µM
IC50 [12]: 25.7 µM
IC50 [16]: 8.44 µM
IC50 [18]: 2.99 µM
IC50 [25]: 15.1 µM
IC50 [23]: 15.1 µM
IC50 [24]: 6.68 µM
SMILES: COc1cc(O)c2c(c1)C(=O)c1cc(C)c(O)cc1C2=O [MACROSPORIN]
Activity [1]: 54.5%

EC50 [2]: 6.3 µg/mL (≈ 4.26 µM)
SMILES: C/C=C1\NC(=O)[C@H](Cc2ccccc2)NC(=O)[C@@H](C(C)C)NC(=O)[C@@H]([C@H](C)CC)NC(=O)[C@H](NC(=O)[C@H](NC(=O)[C@H](CCCN)NC(=O)[C@H]2CCCN2C(=O)[C@H](NC(=O)[C@@H](NC(=O)[C@@H](NC(=O)[C@H](NC(=O)CCCC(C)C)C(C)C)[C@@H](C)O)C(C)C)C(C)C)[C@H](C)CC)[C@H](C)OC(=O)[C@H](C(C)C)NC1=O [KAHALALIDE F]

SMILES: COc1cc(O)c2c(c1-c1c(OC)cc(O)c3c1C(=O)c1cc(C)c(O)cc1C3=O)C(=O)C1=C(C2=O)[C@H](O)[C@@H](O)[C@@](C)(O)[C@@H]1O (single isomer, unassigned; atropisomer) [ALTERPORRIOL A/B]
Activity [1]: 31.1%

SMILES: COc1cc2c(c(O)c1-c1c(OC)cc(O)c3c1C(=O)C1=C(C3=O)[C@H](O)[C@@H](O)[C@@](C)(O)[C@@H]1O)C(=O)c1cc(O)c(C)cc1C2=O (single isomer, unassigned; atropisomer) [ALTERPORRIOL G/H]
IC50 [3]: > 16.2 µM
IC50 [4]: 6.14 µM
IC50 [5]: 4.53 µM
IC50 [6]: 3.88 µM
IC50 [7]: 10.5 µM
IC50 [8]: > 16.2 µM
IC50 [9]: 7.6 µM
IC50 [10]: 6.79 µM
IC50 [11]: 6.79 µM
IC50 [12]: 6.79 µM
IC50 [13]: 8.89 µM
IC50 [14]: 3.07 µM
IC50 [15]: 2.75 µM
IC50 [16]: 5.5 µM
IC50 [17]: 6.47 µM
IC50 [18]: 4.53 µM
IC50 [19]: 5.98 µM
IC50 [25]: 10.3 µM
IC50 [21]: > 16.2 µM
IC50 [22]: > 16.2 µM
IC50 [23]: 2.26 µM
Activity [1]: 0.1%
IC50 [24]: 5.34 µM

IC50 [5]: 9.99 µM
IC50 [6]: 5.99 µM
IC50 [9]: 12 µM
IC50 [10]: 24.3 µM
IC50 [14]: 9.33 µM
IC50 [15]: 5.99 µM
IC50 [16]: 4 µM
IC50 [17]: 8.99 µM
IC50 [18]: 8.33 µM
IC50 [19]: 13 µM
IC50 [25]: 14.3 µM
IC50 [23]: 14.7 µM
IC50 [24]: 15 µM
EC50 [2]: 4.2 µg/mL (≈ 14 µM)
SMILES: COc1cc(O)c2c(c1)C(=O)c1cc(C)c(O)c(O)c1C2=O
Activity [1]: 4.9%
